Experimental data from patent publication US5688960A, “Substituted oximes, hydrazones and olefins useful as neurokinin antagonists” (Schering Corporation, priority 1996, dated 1997).

Columns and labels:
[1] = molecular target: T1, human neurokinin 2 (NK2) receptor (Homo sapiens, UniProt P21452); assay: Neurokinin receptor binding assay, [3H]-Neurokinin A competition, CHO cell membranes (NK2); settings: [3H]-Neurokinin A 1.0 nM
T1 construct: expressed in transfected cells; host or cells: Chinese Hamster ovary (CHO) cells; membranes
T1 sequence (P21452 1-398): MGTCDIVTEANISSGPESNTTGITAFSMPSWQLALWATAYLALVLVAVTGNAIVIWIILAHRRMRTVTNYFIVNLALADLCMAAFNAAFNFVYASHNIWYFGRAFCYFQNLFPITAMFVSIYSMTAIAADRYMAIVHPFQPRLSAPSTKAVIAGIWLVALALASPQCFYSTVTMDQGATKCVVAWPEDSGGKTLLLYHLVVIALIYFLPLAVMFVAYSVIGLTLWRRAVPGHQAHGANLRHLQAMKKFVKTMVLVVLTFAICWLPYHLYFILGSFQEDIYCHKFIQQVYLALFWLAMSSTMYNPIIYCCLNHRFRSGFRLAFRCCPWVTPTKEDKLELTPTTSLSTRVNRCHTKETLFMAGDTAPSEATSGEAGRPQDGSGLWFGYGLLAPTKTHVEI
Description: (§1) Chinese Hamster ovary (CHO) cells transfected with the coding regions for the human neurokinin 1 (NK1) of the human neurokinin 2 (NK2) receptors are grown in Dulbecco's minimal essential medium supplemented with 10% fetal calf serum, 0.1 mM non-essential amino acids, 2 mM glutamine, 100 units/ml of penicillin and streptomycin, and 0.8 mg of G418/ml at 37° C. in a humidified atmosphere containing 5% CO2.
(§2) Cells are detached from T-175 flasks with a sterile solution containing 5 mM EDTA in phosphate buffered saline. Cells are harvested by centrifugation and washed in RPMI media at […] for 5 minutes. […]
(§3) To assay receptor binding, 50 μl of [^3 H]-Substance P (9-Sar, 11-Met) (specific activity 41 Ci/mmol) (Dupont-NEN) (0.8 nM for the NK-1 assay) or [^3 H]-Neurokinin A (specific activity 114 Ci/mmole) (Zenca) (1.0 nM for the NK-2 assay) is added to tubes containing buffer (50 mM Tris-HCl (pH 7.4) with 1 mM MnCl2 and 0.2% Bovine Serum Albumin) and either DMSO or test compound. […] Filters are added to 6 mls of Ready-Safe liquid scintillation cocktail and quantified by liquid scintillation spectrometry in a LKB 1219 RackBeta counter. Non-specific binding is determined by the addition of either 1 μM of CP-99994 (NK-1) or 1 μM SR-48968 (NK-2) (both synthesized by the chemistry department of Schering-Plough Research Institute). […]

[2] = molecular target: T2, human neurokinin 1 (NK1) receptor (Homo sapiens, UniProt P25103); assay: Neurokinin receptor binding assay, [3H]-Substance P competition, CHO cell membranes (NK1); settings: [3H]-Substance P 0.8 nM
T2 construct: expressed in transfected cells; host or cells: Chinese Hamster ovary (CHO) cells; membranes
Description: as §1, §2, §3

T2 sequence (P25103 whole entry): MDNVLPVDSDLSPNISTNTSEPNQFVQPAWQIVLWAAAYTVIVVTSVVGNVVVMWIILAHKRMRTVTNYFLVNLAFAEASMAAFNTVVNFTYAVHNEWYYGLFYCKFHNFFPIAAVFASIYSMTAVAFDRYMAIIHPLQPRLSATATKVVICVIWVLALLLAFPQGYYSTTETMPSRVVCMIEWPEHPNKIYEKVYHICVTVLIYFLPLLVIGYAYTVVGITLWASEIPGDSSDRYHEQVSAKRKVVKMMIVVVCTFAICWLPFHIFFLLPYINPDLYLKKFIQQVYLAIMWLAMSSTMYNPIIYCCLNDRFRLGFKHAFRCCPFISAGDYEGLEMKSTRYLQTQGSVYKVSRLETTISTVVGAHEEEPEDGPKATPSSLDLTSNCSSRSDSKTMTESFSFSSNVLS

SMILES | Ki [1] | Ki [2]
OCCON=C(COCc1cc(C(F)(F)F)cc(C(F)(F)F)c1)C(CCN1CCC(O)(c2ccccc2)CC1)c1csc2ccccc12 (stereo not shown) [Example 4D] | 23 nM | 1.8 nM
CON=C(CN(C)C(=O)c1cc(C)cc(C)c1)C(CCN1CCC(O)(c2ccccc2)CC1)c1csc2ccccc12 (stereo not shown) [Example 7B] | 4.5 nM | 0.65 nM
